Several values for one entry are separate records, joined by “and”; a condition that tells them apart may be missing. Identical values can stand only once. Inconclusive results and toxic doses are left out. The calls were made as follows: active = survival T/C of 150% or more; inactive = T/C below 125% in these data. Peptide text beside a SMILES is read from it.
Test system: P388 leukemia ip, CD2F1 mice, survival T/C
Assay: NCI In Vivo Anticancer Drug Screen. Data for tumor model P388 Leukemia (intraperitoneal) in CD2F1 (CDF1) mice
Settings: endpoint: median survival time, higher = longer survival
Summary of the method: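 Mice carrying the transplanted tumor received test compound or vehicle. Survival was recorded in each group, and the value is the treated-group measurement divided by that of the vehicle-treated control group.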

[1] = dose: 25.0 mg/kg/injection, schedule: Q01DX009 (ip), vehicle: saline
[2] = dose: 50.0 mg/kg/injection, schedule: Q01DX005 (ip), vehicle: Klucel (hydroxypropylcellulose) (HPC)
[3] = dose: 50.0 mg/kg/injection, schedule: Q01DX009 (ip), vehicle: saline
[4] = dose: 100.0 mg/kg/injection, schedule: Q01DX005 (ip), vehicle: Klucel (hydroxypropylcellulose) (HPC)
[5] = dose: 100.0 mg/kg/injection, schedule: Q01DX009 (ip), vehicle: saline
[6] = dose: 200.0 mg/kg/injection, schedule: Q01DX005 (ip), vehicle: Klucel (hydroxypropylcellulose) (HPC)
[7] = dose: 200.0 mg/kg/injection, schedule: Q01DX009 (ip), vehicle: saline
[8] = dose: 50.0 mg/kg/injection, schedule: Q04DX003 (ip), vehicle: saline
[9] = dose: 100.0 mg/kg/injection, schedule: Q04DX003 (ip), vehicle: saline
[10] = dose: 25.0 mg/kg/injection, schedule: Q01DX009 (ip), vehicle: other
[11] = dose: 50.0 mg/kg/injection, schedule: Q01DX009 (ip), vehicle: other
[12] = dose: 100.0 mg/kg/injection, schedule: Q01DX009 (ip), vehicle: other
[13] = dose: 200.0 mg/kg/injection, schedule: Q01DX009 (ip), vehicle: other
[14] = dose: 100.0 mg/kg/injection, schedule: Q04DX002 (ip), vehicle: Klucel (hydroxypropylcellulose) (HPC)
[15] = dose: 200.0 mg/kg/injection, schedule: Q04DX002 (ip), vehicle: Klucel (hydroxypropylcellulose) (HPC)
[16] = dose: 400.0 mg/kg/injection, schedule: Q04DX002 (ip), vehicle: Klucel (hydroxypropylcellulose) (HPC)
[17] = dose: 60.0 mg/kg/injection, schedule: Q01DX005 (ip), vehicle: saline with Tween-80
[18] = dose: 120.0 mg/kg/injection, schedule: Q01DX005 (ip), vehicle: saline with Tween-80
[19] = dose: 240.0 mg/kg/injection, schedule: Q01DX005 (ip), vehicle: saline with Tween-80
[20] = dose: 100.0 mg/kg/injection, schedule: Q04DX002 (ip), vehicle: saline with Tween-80
[21] = dose: 200.0 mg/kg/injection, schedule: Q04DX002 (ip), vehicle: saline with Tween-80
[22] = dose: 400.0 mg/kg/injection, schedule: Q04DX002 (ip), vehicle: saline with Tween-80
[23] = dose: 50.0 mg/kg/injection, schedule: Q01DX009 (ip), vehicle: Klucel (hydroxypropylcellulose) (HPC)
[24] = dose: 100.0 mg/kg/injection, schedule: Q01DX009 (ip), vehicle: Klucel (hydroxypropylcellulose) (HPC)
[25] = dose: 200.0 mg/kg/injection, schedule: Q01DX009 (ip), vehicle: Klucel (hydroxypropylcellulose) (HPC)

Measured: T/C

NC(N)=NCCCC(N)C(=O)NC(CCC(=O)O)C(=O)O (stereo not drawn) (H-Arg-Glu-OH; configuration not given here)
inactive: [1] 91 % of control | [2] 100 % of control | [3] 97 % of control | [4] 100 % of control | [5] 94 % of control | [6] 100 % of control | [7] 103 % of control | dose: 400.0 mg/kg/injection, schedule: Q01DX009 (ip), vehicle: saline 88 % of control

CN1CCC(OC(=O)c2ccco2)CC1
inactive: [8] 101 % of control | [9] 100 % of control | dose: 200.0 mg/kg/injection, schedule: Q04DX003 (ip), vehicle: saline 99 % of control

NC(=Nc1ccccc1)c1ccccn1
inactive: [3] 95 % of control | [5] 94 % of control | [7] 95 % of control

O=C1c2ccccc2C(=O)N1CCP(=O)(c1ccccc1)c1ccccc1
inactive: dose: 12.5 mg/kg/injection, schedule: Q01DX009 (ip), vehicle: other 98 % of control | [10] 106 % of control | [11] 98 % of control | [12] 91 % of control | [13] 91 % of control

C/C(C/C(C)=N/O)=N/O
inactive: [3] 99 % of control | [5] 97 % of control | [7] 91 % of control

O=C1c2ccccc2C(=O)C23OC12C1C=CC3CC1 (stereo unspecified)
inactive: dose: 50.0 mg/kg/injection, schedule: Q01DX001 (ip), vehicle: Klucel (hydroxypropylcellulose) (HPC) 94 % of control | dose: 100.0 mg/kg/injection, schedule: Q01DX001 (ip), vehicle: Klucel (hydroxypropylcellulose) (HPC) 91 % of control | dose: 200.0 mg/kg/injection, schedule: Q01DX001 (ip), vehicle: Klucel (hydroxypropylcellulose) (HPC) 93 % of control

S=C(N\N=C/C(/C=C/c1ccccc1)=N\NC(=S)Nc1ccc(Br)cc1)Nc1ccc(Br)cc1
inactive: [14] 106 % of control | [15] 97 % of control | [16] 95 % of control

CC(C)COP(=O)(OCC(C)C)OCC(C)C.CC(C)COP(=O)(OCC(C)C)OCC(C)C.CC(C)COP(=O)(OCC(C)C)OCC(C)C.CC(C)COP(=O)(OCC(C)C)OCC(C)C.O.O.[Co+2].[O-][Cl+3]([O-])([O-])O
inactive: dose: 25.0 mg/kg/injection, schedule: Q04DX003 (ip), vehicle: saline with Tween-80 94 % of control | dose: 50.0 mg/kg/injection, schedule: Q04DX003 (ip), vehicle: saline with Tween-80 99 % of control | dose: 100.0 mg/kg/injection, schedule: Q04DX003 (ip), vehicle: saline with Tween-80 114 % of control and 116 % of control

C=C1CCN(c2ccc(OCC)cc2)C1=O
inactive: dose: 4.0 mg/kg/injection, schedule: Q01DX009 (ip), vehicle: saline + alcohol 102 % of control and 113 % of control and 94 % of control | dose: 8.0 mg/kg/injection, schedule: Q01DX009 (ip), vehicle: saline + alcohol 101 % of control and 108 % of control and 91 % of control | dose: 16.0 mg/kg/injection, schedule: Q01DX009 (ip), vehicle: saline + alcohol 100 % of control and 91 % of control | dose: 32.0 mg/kg/injection, schedule: Q01DX009 (ip), vehicle: saline + alcohol 106 % of control and 111 % of control and 94 % of control | dose: 64.0 mg/kg/injection, schedule: Q01DX009 (ip), vehicle: saline + alcohol 100 % of control and 108 % of control and 95 % of control

COc1ccc2[nH]c(=O)oc(=O)c2c1
inactive: [1] 100 % of control | [3] 96 % of control | [5] 107 % of control | [7] 107 % of control

CSC(=S)N1CCN(C(=S)SC)C1=O
inactive: [2] 108 % of control | [4] 96 % of control | [6] 91 % of control

CC1SCC(=O)N1c1nncs1 (stereo unspecified)
active: dose: 480.0 mg/kg/injection, schedule: Q01DX005 (ip), vehicle: Klucel (hydroxypropylcellulose) (HPC) 162 % of control
inactive: dose: 30.0 mg/kg/injection, schedule: Q01DX005 (ip), vehicle: Klucel (hydroxypropylcellulose) (HPC) 101 % of control and 104 % of control | dose: 60.0 mg/kg/injection, schedule: Q01DX005 (ip), vehicle: Klucel (hydroxypropylcellulose) (HPC) 102 % of control and 106 % of control | dose: 120.0 mg/kg/injection, schedule: Q01DX005 (ip), vehicle: Klucel (hydroxypropylcellulose) (HPC) 106 % of control and 123 % of control | dose: 240.0 mg/kg/injection, schedule: Q01DX005 (ip), vehicle: Klucel (hydroxypropylcellulose) (HPC) 123 % of control

CCOC(=O)C(Nc1cc([N+](=O)[O-])ccc1C(=O)OC(C)C)(OC(C)C)C(=O)OCC
inactive: [14] 90 % of control | [15] 91 % of control | [16] 90 % of control

COC(=O)NC1C(=O)OC2C1CC1OC12 (stereo unspecified)
inactive: [17] 101 % of control | [18] 100 % of control | [19] 101 % of control

CC(Nc1cnccn1)Nc1cnccn1
inactive: [2] 102 % of control | [4] 105 % of control | [6] 104 % of control

COc1ccc(N=C(C)c2c(O)n(-c3ccccc3)[nH]c2=O)cc1
inactive: [2] 101 % of control | [4] 104 % of control | [6] 99 % of control

NCCC[Se]CC(N)C(=O)O (stereo unspecified)
inactive: dose: 12.5 mg/kg/injection, schedule: Q01DX005 (ip), vehicle: saline 100 % of control | dose: 25.0 mg/kg/injection, schedule: Q01DX005 (ip), vehicle: saline 102 % of control | dose: 25.0 mg/kg/injection, schedule: Q04DX003 (ip), vehicle: saline 95 % of control | dose: 50.0 mg/kg/injection, schedule: Q01DX005 (ip), vehicle: saline 104 % of control | [8] 111 % of control | dose: 100.0 mg/kg/injection, schedule: Q01DX005 (ip), vehicle: saline 102 % of control | [9] 110 % of control and 119 % of control

C=C(C)[C@@H]1CC=C(C)[C@H](O)C1
inactive: [3] 111 % of control | [5] 102 % of control | [7] 100 % of control

O=C1CS(=O)(=O)C(c2cccs2)N1CCN1C(=O)CS(=O)(=O)C1c1cccs1 (stereo unspecified)
inactive: [20] 97 % of control and 94 % of control | [21] 94 % of control and 93 % of control | [22] 92 % of control and 90 % of control

Cc1cccc(-n2c(-c3ccc(Cl)cc3)cs/c2=N\Nc2nnc(-c3ccccc3)c(-c3ccccc3)n2)c1
inactive: [20] 88 % of control | [21] 87 % of control | [22] 89 % of control

O=C(NCCCl)Nc1[nH]c(=O)ncc1Br
inactive: [17] 104 % of control | [18] 102 % of control | [19] 112 % of control

O=C1NC(=S)NNC12CCCCC2
inactive: dose: 25.0 mg/kg/injection, schedule: Q01DX009 (ip), vehicle: Klucel (hydroxypropylcellulose) (HPC) 101 % of control | [23] 101 % of control and 108 % of control | [24] 112 % of control and 97 % of control | [25] 105 % of control (2×) and 113 % of control

CCC[CH2][Sn]([CH2]CCC)([n]1ccnc1)[n]1ccnc1
inactive: dose: 3.12 mg/kg/injection, schedule: Q01DX005 (ip), vehicle: Klucel (hydroxypropylcellulose) (HPC) 116 % of control | dose: 6.25 mg/kg/injection, schedule: Q01DX005 (ip), vehicle: Klucel (hydroxypropylcellulose) (HPC) 110 % of control

CCCCCCCCCCCCCCCC(=O)N(CC#CCN(CCCN(C)C)C(=O)CCCCCCCCCCCCCCC)CCCN(C)C
inactive: [10] 95 % of control | [11] 87 % of control

Cc1cc(O)c(N=Nc2cc(C)c(C)cc2[N+](=O)[O-])cc1C
inactive: [23] 109 % of control | [24] 109 % of control | [25] 101 % of control

CC(=C1N=c2ccccc2=N1)c1[nH]c(O)c2ccccc12
inactive: dose: 50.0 mg/kg/injection, schedule: Q01DX009 (ip), vehicle: saline with Tween-80 95 % of control | dose: 100.0 mg/kg/injection, schedule: Q01DX009 (ip), vehicle: saline with Tween-80 90 % of control | dose: 200.0 mg/kg/injection, schedule: Q01DX009 (ip), vehicle: saline with Tween-80 96 % of control

[O-][N+]1=C(/C=C/C=C/c2ccccc2)CCC1
inactive: [11] 95 % of control | [12] 107 % of control | [13] 118 % of control
